Patent publication US7662822B2, “Substituted azaquinazolines having an antiviral action” (Bayer Schering Pharma Aktiengesellschaft, priority 2004, dated 2010)
pEC50: −log10 of the molar value. Structures can show the parent of a compound that is named as a salt. Where two headings read alike, the source gives them in different places.

Assays:
[1] = Anti-HCMV cytopathogenicity test: cytostatic effect on NHDF cells; assay type: cell-based; conditions: human, human prepuce fibroblasts (NHDF cells), 6 days incubation, visual assessment
Procedure: (§1) Anti-HCMV (Anti-Human Cytomegalovirus) Cytopathogenicity Tests
(§2) The test compounds are employed as 50 millimolar (mM) solutions in dimethyl sulphoxide (DMSO). Ganciclovir®, Foscarnet® and Cidofovir® are used as reference compounds. After addition of in each case 2 μl of the 50, 5, 0.5 and 0.05 mM DMSO stock solutions to 98 μl portions of cell culture medium in row 2 A-H for duplicate determinations, 1:2 dilutions are carried out with 50 μl portions of medium up to row 11 of the 96-well plate. The wells in rows 1 and 12 each contain 50 μl of medium. 150 μl of a suspension of 1×10^4 cells (human prepuce fibroblasts [NHDF]) are then pipetted into each of the wells (row 1=cell control) and, in rows 2-12, a mixture of HCMV-infected and uninfected NHDF cells (M.O.I.=0.001−0.002), i.e. 1-2 infected cells per 1000 uninfected cells. Row 12 (without substance) serves as virus control. The final test concentrations are 250-0.0005 μM. The plates are incubated at 37° C./5% CO2 for 6 days, i.e. until all the cells are infected in the virus controls (100% cytopathogenic effect [CPE]). The wells are then fixed and stained by adding a mixture of formalin and Giemsa's dye (30 minutes), washed with double-distilled water and dried in a drying oven at 50° C. The plates are then assessed visually using an overhead microscope (plaque multiplier from Technomara).
(§3) The following data can be acquired from the test plates:
CC50 (NHDF)=substance concentration in μM at which no visible cytostatic effects on the cells are evident by comparison with the untreated cell control;

[2] = tested on: HCMV (human cytomegalovirus); experiment: Anti-HCMV cytopathogenicity test: inhibition of CPE; assay type: cell-based; conditions: for pEC50: read-out: HCMV EC50
Procedure: as §1, §2, §3
EC50 (HCMV)=substance concentration in μM which inhibits the CPE (cytopathic effect) by 50% compared with the untreated virus control;
SI (selectivity index)=CC50 (NHDF)/EC50 (HCMV).

[3] = Human betaherpesvirus 5, 144 h, HCMV-infected NHDF cells, M.O.I. 0.001-0.002, 6 days, inhibition of CPE by 50%

Row | pEC50 [2, 3] | SMILES | CC50 at 6 days [1] | SI HCMV (selectivity index = CC50 (NHDF)/EC50 (HCMV)) [2] | pEC50 ([2]; Human betaherpesvirus 5, NHDF, 144 h)
1 | 6.85 | COc1ccc(C)cc1N1C(N2CCN(c3ccc(F)cc3)CC2)=Nc2ccncc2C1CC(=O)O (stereo not drawn) [Example 8, [2-[4-(4-Fluorophenyl)piperazin-1-yl]-3-(2-methoxy-5-methylphenyl)-3,4-dihydropyrido[4,3-d]-pyrimidin-4-yl] acetic acid] | 250 µM | 1786 | –
2 | – | COc1cccc(N2CCN(C3=Nc4cnccc4C(CC(=O)O)N3c3cccc(C(F)(F)F)c3)CC2)c1 (stereo not drawn) [Example 4, {2-[4-(3-Methoxyphenyl)piperazin-1-yl]-3-[3-(trifluoromethyl)phenyl]-3,4-dihydropyrido[3,4-d]-pyrimidin-4-yl}acetic acid hydrochloride] | 94 µM | 470 | 6.70
3 | 7.30 | COc1ccc(C(F)(F)F)cc1N1C(N2CCN(c3ccc(F)cc3)CC2)=Nc2ccncc2C1CC(=O)O (stereo not drawn) [Example 9, {2-[4-(4-Fluorophenyl)piperazin-1-yl]-3-[2-methoxy-5-(trifluoromethyl)phenyl]-3,4-dihydro-pyrido[4,3-d]pyrimidin-4-yl}acetic acid] | 94 µM | 1880 | –
